US8263606B2 (Xenon Pharmaceuticals Inc., priority 2008, dated 2012)
pIC50: −log10 of the molar value.

Legend:
[1] = test system: sodium channel; assay: Guanidine influx assay (14C-guanidine radiotracer flux, in vitro); assay type: cell-based, human or rat; conditions: guanidine influx assay using a known cell line that expresses a sodium channel
How it was run: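 Cells (human/rat Nav, endogenous or recombinant), ~100,000/well, 20-24 h 37 °C/5% CO2. Wash LNHBSS (150 mM choline Cl, HEPES, glucose). Add cpd + aconitine/14C-guanidine mix, RT. Wash, dry, scintillation count. IC50: 4-PL fit; selectivity as IC50 ratio vs reference channel, e.g. Nav1.5.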

[2] = molecular target: CYP3A4 (Homo sapiens, UniProt P08684); assay: Cytochrome P450 (CYP450) Inhibition Assay, CYP3A4 (Vivid fluorescence, BOMCC substrate); conditions: human, P450 Baculosomes (recombinant CYP3A4), probe BOMCC (Vivid substrate)
Sequence of CYP3A4 (P08684 whole entry): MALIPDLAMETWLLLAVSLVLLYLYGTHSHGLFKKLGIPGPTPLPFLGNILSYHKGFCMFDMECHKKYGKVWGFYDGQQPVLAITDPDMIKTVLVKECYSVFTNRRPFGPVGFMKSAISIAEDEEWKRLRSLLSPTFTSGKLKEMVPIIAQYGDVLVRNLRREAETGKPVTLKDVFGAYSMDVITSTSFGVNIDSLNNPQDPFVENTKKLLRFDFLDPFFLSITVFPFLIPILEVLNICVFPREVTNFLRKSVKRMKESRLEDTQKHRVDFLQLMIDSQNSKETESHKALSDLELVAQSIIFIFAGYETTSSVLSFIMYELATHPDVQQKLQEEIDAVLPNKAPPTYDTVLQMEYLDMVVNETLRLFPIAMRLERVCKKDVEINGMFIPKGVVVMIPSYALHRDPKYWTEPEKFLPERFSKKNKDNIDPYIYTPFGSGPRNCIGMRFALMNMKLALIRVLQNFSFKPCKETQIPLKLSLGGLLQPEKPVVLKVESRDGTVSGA

| pIC50 [1] | melting point [°C] | inhibition at 10 µM [2] [%] | pIC50 ([1]; activity level class) | SMILES |
| --- | --- | --- | --- | --- |
| 5.00 to 6.00 | 60 to 62 | > 50 |  | COc1ccc(-c2ccc3c(c2)C2(CO3)C(=O)N(Cc3ccc(Cl)s3)c3ccccc32)cn1 (stereo not drawn) [Example 16.88, 1′-[(5-chloro-2-thienyl)methyl]-5-(6-methoxypyridin-3-yl)spiro[1-benzofuran-3,3′-indol]-2′(1′H)-one] |
|  | > 240 | > 50 | 7.00 to 9.00 | Cn1c(CN2C(=O)C3(COc4cc5c(cc43)OCCO5)c3ccccc32)nc2ccccc21 (stereo not drawn) [Example 4.120, 1′-[(1-methyl-1H-benzimidazol-2-yl)methyl]-2,3-dihydrospiro[furo[2,3-g][1,4]benzodioxine-8,3′-indol]-2′(1′H)-one] |
|  | 109 to 110 | < 50 | 6.00 to 7.00 | COCCOCCN1C(=O)C2(COc3cc4c(cc32)OCCO4)c2c(OC)ccc(OC)c21 (stereo not drawn) [Example 2.64, 4′,7′-dimethoxy-1′-[2-(2-methoxyethoxy)ethyl]-2,3-dihydrospiro[furo[2,3-g][1,4]benzodioxine-8,3′-indol]-2′(1′H)-one] |
|  | 167 to 169 | > 50 | 6.00 to 7.00 | O=C1N(C[C@H]2CCCO2)c2ccc(F)cc2C12COc1cc3c(cc12)CCO3 (stereo partly drawn) [Example 9.18, 5′-fluoro-1′-[(2R)-tetrahydrofuran-2-ylmethyl]-5,6-dihydrospiro[benzo[1,2-b:5,4-b′]difuran-3,3′-indol]-2′(1′H)-one] |
| 6.00 to 7.00 | 190 to 191 | > 50 |  | CCNC(=O)c1ccc(CN2C(=O)C3(COc4cc5c(cc43)CCO5)c3ccccc32)cc1 (stereo not drawn) [Example 12.39, N-ethyl-4-[(2′-oxo-5,6-dihydrospiro[benzo[1,2-b:5,4-b′]difuran-3,3′-indol]-1′(2′H)-yl)methyl]benzamide] |
|  | 128 to 130 | > 50 | 7.00 to 9.00 | CSc1ccc(CN2C(=O)C3(COc4cc5c(cc43)OCO5)c3ccccc32)cc1 (stereo not drawn) [Example 4.79, 1′-[4-(methylsulfanyl)benzyl]spiro[furo[2,3-f][1,3]benzodioxole-7,3′-indol]-2′(1′H)-one] |
| 6.00 to 7.00 | 178 to 179 | < 50 |  | O=C1N(Cc2ccc(-c3noc(C(F)(F)F)n3)cc2)c2ccccc2C12COc1cc3c(cc12)CCO3 (stereo not drawn) [Example 11.13, 1′-{4-[5-(trifluoromethyl)-1,2,4-oxadiazol-3-yl]benzyl}-5,6-dihydrospiro[benzo[1,2-b:5,4-b′]difuran-3,3′-indol]-2′(1′H)-one] |
| 5.00 to 6.00 | 143 to 144 | < 50 |  | Cc1c(F)cccc1NC(=O)c1ccc(CN2C(=O)C3(COc4cc5c(cc43)CCO5)c3ccccc32)cc1 (stereo not drawn) [Example 12.44, N-(3-fluoro-2-methylphenyl)-4-[(2′-oxo-5,6-dihydrospiro[benzo[1,2-b:5,4-b′]difuran-3,3′-indol]-1′(2′H)-yl)methyl]benzamide] |
| 5.00 to 6.00 | 154 to 159 | < 50 |  | O=C1N(CC2CNCCO2)c2ccccc2C12COc1cc3c(cc12)OCCO3 (stereo not drawn) [Example 11.102, 1-(morpholin-2-ylmethyl)-2,3-dihydrospiro[furo[2,3-g][1,4]benzodioxine-8,3′-indol]-2′(1′1-1)-one] |
| 6.00 to 7.00 | 161 to 163 | > 50 |  | CC(C)(C)CCNC(=O)CN1C(=O)C2(COc3cc4c(cc32)CCO4)c2ccccc21 (stereo not drawn) [Example 12.49, N-(3,3-dimethylbutyl)-2-(2′-oxo-5,6-dihydrospiro[benzo[1,2-b:5,4-b′]difuran-3,3′-indol]-1′(2′H)-yl)acetamide] |
|  | 186 to 187 | < 50 | 5.00 to 6.00 | Cn1c(=O)oc2cc3c(cc21)OCC31C(=O)N(C[C@H]2CCCO2)c2ccccc21 (stereo partly drawn) [Example 8.14, 3-methyl-1′-(((R)-tetrahydrofuran-2-yl)methyl)-2H-spiro[benzofuro[6,5-d]oxazole-7,3′-indoline]-2,2′(3H,6H)-dione] |
|  | 175 to 176 | > 50 | 7.00 to 9.00 | Cc1ccc(F)c2c1N(C[C@H]1CCCO1)C(=O)C21COc2cc3c(cc21)CCO3 (stereo partly drawn) [Example 8.3, 4′-fluoro-7′-methyl-1′-[(2R)-tetrahydrofuran-2-ylmethyl]-5,6-dihydrospiro[benzo[1,2-b:5,4-b′]difuran-3,3′-indol]-2′(1′H)-one] |
| 5.00 to 6.00 | 116 to 119 | < 50 |  | Nc1noc2cc3c(cc12)C1(CO3)C(=O)N(C[C@H]2CCCO2)c2ccccc21 (stereo partly drawn) [Example 44.2, 3-amino-1′-[(2R)-tetrahydrofuran-2-ylmethyl]spiro[furo[3,2-f][1,2]benzisoxazole-5,3′-indol]-2′(1′H)-one] |
|  | 139 to 141 | < 50 | 5.00 to 6.00 | O=C1N(C[C@H]2CCCO2)c2ccccc2C12COc1cc3c(cc12)CCCC3 (stereo partly drawn) [Example 4.129, 1-[(2R)-tetrahydrofuran-2-ylmethyl]-5′,6′,7′,8′-tetrahydrospiro[indole-3,3′-naphtho[2,3-b]furan]-2(1′H)-one] |
| 7.00 to 9.00 | 214 to 217 | > 50 |  | O=C1c2ccccc2C(=O)N1CCCN1C(=O)C2(COc3cc4c(cc32)CCO4)c2ccccc21 (stereo not drawn) [Example 9.66, 2-[3-(2′-oxo-5,6-dihydrospiro[benzo[1,2-b:5,4-b′]difuran-3,3′-indol]-1′(2′H)-yl)propyl]-1H-isoindole-1,3(2H)-dione] |
|  | 137 to 138 | < 50 | 7.00 to 9.00 | O=C1N(Cc2ccccc2C(F)(F)F)c2ccccc2[C@]12COc1cc3c(cc12)OCCO3 [Example 4.116, (8S)-1′-[2-(trifluoromethyl)benzyl]-2,3-dihydrospiro[furo[2,3-g][1,4]benzodioxine-8,3′-indol]-2′(1′H)-one] |
|  | 66 to 68 | < 50 | 6.00 to 7.00 | O=C1N(Cc2cccc(OCc3ccccc3)c2)c2ccccc2C12COc1cc3c(cc12)CCO3 (stereo not drawn) [Example 9.11, 1′-[3-(benzyloxy)benzyl]-5,6-dihydrospiro[benzo[1,2-b:5,4-b′]difuran-3,3′-indol]-2′(1′H)-one] |
|  | 210 to 212 | < 50 | 7.00 to 9.00 | O=C1N(c2ccc(F)cc2)c2ccccc2C12COc1cc3c(cc12)OCCO3 (stereo not drawn) [Example 2.45, 1′-(4-fluorophenyl)-2,3-dihydrospiro[furo[2,3-g][1,4]benzodioxine-8,3′-indol]-2′(1′H)-one] |
| 7.00 to 9.00 | 117 to 119 | < 50 |  | Nc1ccc(CN2C(=O)C3(COc4cc5c(cc43)OCCO5)c3ccccc32)cn1 (stereo not drawn) [Example 37, 1′-[(6-aminopyridin-3-yl)methyl]-2,3-dihydrospiro[furo[2,3-g][1,4]benzodioxine-8,3′-indol]-2′(1′H)-one] |
| 6.00 to 7.00 | 190 to 192 | < 50 |  | Nc1noc2cc3c(cc12)C1(CO3)C(=O)N(Cc2ccccn2)c2ccccc21 (stereo not drawn) [Example 44.1, 3-amino-1′-(pyridin-2-ylmethyl)spiro[furo[3,2-f][1,2]benzisoxazole-5,3′-indol]-2′(1′H)-one] |
|  | 101 to 103 | > 50 | 6.00 to 7.00 | CC(C)c1ncc(CN2C(=O)C3(COc4cc5c(cc43)OCO5)c3cccc(C(F)(F)F)c32)s1 (stereo not drawn) [Example 4.76, 1′-[(2-isopropyl-1,3-thiazol-5-yl)methyl]-7′-(trifluoromethyl)spiro[furo[2,3-f][1,3]benzodioxole-7,3′-indol]-2′(1′H)-one] |
| 5.00 to 6.00 | > 230 | > 50 |  | O=C(Nc1cccc(Cl)c1)c1ccccc1CN1C(=O)C2(COc3cc4c(cc32)CCO4)c2ccccc21 (stereo not drawn) [Example 12.13, N-(3-chlorophenyl)-2-[(2′-oxo-5,6-dihydrospiro[benzo[1,2-b:5,4-b′]difuran-3,3′-indol]-1′(2′H)-yl)methyl]benzamide] |
| 7.00 to 9.00 | 159 to 160 | > 50 |  | O=C1N(Cc2noc(C(F)(F)F)n2)c2ccccc2C12COc1cc3c(cc12)OCCO3 (stereo not drawn) [Example 11.90, 1′-{[5-(trifluoromethyl)-1,2,4-oxadiazol-3-yl]methyl}-2,3-dihydrospiro[furo[2,3-g][1,4]benzodioxine-8,3′-indol]-2′(1′H)-one] |
| 6.00 to 7.00 | 249 to 250 | < 50 |  | O=C1N(Cc2ccc(=O)[nH]c2)c2ccccc2C12COc1cc3c(cc12)OCCO3 (stereo not drawn) [Example 35, 1′-[(6-oxo-1,6-dihydropyridin-3-yl)methyl]-2,3-dihydrospiro[furo[2,3-g][1,4]benzodioxine-8,3′-indol]-2′(1′H)-one] |
|  | > 250 | < 50 | 5.00 to 6.00 | O=C1Nc2ccccc2C12COc1c2ccc2c1OCCO2 (stereo not drawn) [Example 3.48, 2,3-dihydrospiro[furo[2,3-f][1,4]benzodioxine-7,3′-indol]-2′(1′H)-one] |
|  | 142 to 143 | > 50 | 5.00 to 6.00 | COc1ccc(CN2C(=O)C3(COc4cc(F)c(C#N)cc43)c3ccccc32)cc1 (stereo not drawn) [Example 2.40, 6-fluoro-1′-(4-methoxybenzyl)-2′-oxo-1′,2′-dihydrospiro[1-benzofuran-3,3′-indole]-5-carbonitrile] |
| 7.00 to 9.00 | 164 to 166 | > 50 |  | COc1ncc(CN2C(=O)C3(COc4cc5c(cc43)OCO5)c3ccccc32)s1 (stereo not drawn) [Example 11.4, 1′-[(2-methoxy-1,3-thiazol-5-yl)methyl]spiro[furo[2,3-f][1,3]benzodioxole-7,3′-indol]-2′(1′H)-one] |
